Source: patent US8754049B2, “Organic compound for the regulation of vectorial ion channels” (APEPTICO Forschung und Entwicklung GmbH, priority 2010, dated 2014)
Non-standard residues stand in square brackets, D forms with d. Residues, ends and D or L forms follow the SMILES beside them. Ahp = NCCCCCCC(=O)O

Assays:
human A549 cells = assay: Microscopic observation of A549 cells after addition of compounds; assay type: cell-based; details: microscopic observation after addition of compound
Procedure: (§1) The electrophysiological experiments were performed on human A549 cells (ATTC No. CCL-185). A549 cells are human lung epithelial cells which are involved in the diffusion of water and electrolytes in the lungs. The cells were suspended in RPMI-1640 medium (Sigma-Aldrich, product number R6504) with 1% penicillin/streptomycin and 10% fetal calf serum, transferred into plastic cell culture vessels and cultivated in an incubator with 95% air and 5% CO2 at 37° C. The medium was changed 2 to 3 times per week. The cells double within approx. 22 hours, and a cell concentration of more than 7×10^4 cells per cm^2 was not exceeded.
The cells were microscopically observed.

[1] = target: T1, epithelial sodium channels (Homo sapiens, UniProt P37088+P51168+P51170); assay: Patch-clamp measurement, whole cell configuration, amiloride-sensitive sodium current in A549 cells; assay type: cell-based; details: for Activity in comparison to a peptide SEQ ID NO: 10 CGQRETPEGAEKPWYC ("TIP-Peptid", Lucas et al. Science 1994 also WO00/09149): whole cell patch-clamp, A549 cells, amiloride-sensitive sodium current, relative to TIP peptide SEQ ID NO: 10
T1 construct: endogenous in cells; host or cells: A549 human lung epithelial cells (ATTC No. CCL-185)
T1 sequence (P51170 whole entry): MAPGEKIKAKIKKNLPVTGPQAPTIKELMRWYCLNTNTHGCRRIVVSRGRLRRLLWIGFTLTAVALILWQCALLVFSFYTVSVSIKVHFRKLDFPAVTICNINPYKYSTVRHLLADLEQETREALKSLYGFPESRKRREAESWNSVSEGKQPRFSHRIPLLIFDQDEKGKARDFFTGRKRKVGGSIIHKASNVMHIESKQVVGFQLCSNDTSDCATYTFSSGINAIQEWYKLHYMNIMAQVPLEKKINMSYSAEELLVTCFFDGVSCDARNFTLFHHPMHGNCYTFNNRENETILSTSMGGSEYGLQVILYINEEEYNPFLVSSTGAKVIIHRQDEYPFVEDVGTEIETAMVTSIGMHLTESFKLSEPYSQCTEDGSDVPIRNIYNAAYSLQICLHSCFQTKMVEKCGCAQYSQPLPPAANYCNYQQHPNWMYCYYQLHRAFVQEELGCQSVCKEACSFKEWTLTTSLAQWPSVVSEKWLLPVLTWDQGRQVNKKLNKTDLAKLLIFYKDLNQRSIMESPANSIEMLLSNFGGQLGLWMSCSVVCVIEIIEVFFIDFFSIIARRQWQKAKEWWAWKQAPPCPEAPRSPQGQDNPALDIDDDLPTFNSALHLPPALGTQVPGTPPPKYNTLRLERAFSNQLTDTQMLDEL
T1 sequence (P37088 whole entry): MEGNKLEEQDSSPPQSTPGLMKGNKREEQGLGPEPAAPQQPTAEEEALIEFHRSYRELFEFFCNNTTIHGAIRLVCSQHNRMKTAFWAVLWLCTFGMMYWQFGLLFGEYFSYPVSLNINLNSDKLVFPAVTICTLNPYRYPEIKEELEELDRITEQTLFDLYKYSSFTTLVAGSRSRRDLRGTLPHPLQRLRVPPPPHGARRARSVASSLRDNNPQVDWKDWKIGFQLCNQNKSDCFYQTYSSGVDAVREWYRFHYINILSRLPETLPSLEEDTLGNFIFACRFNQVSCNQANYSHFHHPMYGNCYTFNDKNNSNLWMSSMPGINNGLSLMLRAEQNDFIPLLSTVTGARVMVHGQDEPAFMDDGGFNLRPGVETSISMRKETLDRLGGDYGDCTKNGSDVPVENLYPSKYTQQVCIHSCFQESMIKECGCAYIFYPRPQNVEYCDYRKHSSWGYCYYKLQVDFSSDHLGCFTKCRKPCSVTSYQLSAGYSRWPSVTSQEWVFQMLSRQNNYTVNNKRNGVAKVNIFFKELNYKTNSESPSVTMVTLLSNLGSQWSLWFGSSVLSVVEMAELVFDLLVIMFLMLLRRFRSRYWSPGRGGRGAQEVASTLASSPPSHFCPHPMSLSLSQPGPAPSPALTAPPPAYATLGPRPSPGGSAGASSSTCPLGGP
T1 sequence (P51168 whole entry): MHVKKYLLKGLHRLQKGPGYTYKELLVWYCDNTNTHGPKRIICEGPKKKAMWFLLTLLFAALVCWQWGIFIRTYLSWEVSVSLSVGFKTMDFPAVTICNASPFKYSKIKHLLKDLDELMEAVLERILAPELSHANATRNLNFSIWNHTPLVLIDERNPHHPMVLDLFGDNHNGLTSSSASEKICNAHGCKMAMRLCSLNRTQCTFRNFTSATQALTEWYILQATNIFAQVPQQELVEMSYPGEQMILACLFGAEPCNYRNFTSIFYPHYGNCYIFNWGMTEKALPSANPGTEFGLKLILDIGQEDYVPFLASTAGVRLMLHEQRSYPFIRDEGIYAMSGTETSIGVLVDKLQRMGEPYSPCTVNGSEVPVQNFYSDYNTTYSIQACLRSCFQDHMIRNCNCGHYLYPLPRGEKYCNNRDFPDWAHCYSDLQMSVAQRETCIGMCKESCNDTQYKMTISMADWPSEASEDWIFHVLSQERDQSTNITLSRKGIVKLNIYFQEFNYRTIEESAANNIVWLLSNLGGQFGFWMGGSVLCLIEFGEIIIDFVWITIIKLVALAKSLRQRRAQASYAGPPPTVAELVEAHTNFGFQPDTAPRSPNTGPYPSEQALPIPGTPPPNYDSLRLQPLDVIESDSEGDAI
From the text: The detection of a vectorial regulation of ion channels by a compound may be effected according to a method common in laboratories, for example, according to Clunes M. T. et al., J. Physiolo. (2004) 557.3: 809-819), via patch-clamp experiments. For patch-clamp examinations of ion channels, a glass cannula is stretched thin and filled with a neutral buffer solution. The glass cannula (patch-clamp pipette) is carefully pressed onto an intact epithelial cell. A piece of membrane is located below the pipette. An electrical resistance is thereby produced between the interior of the pipette and the external solution. An electrode attached to a sensitive amplifier dips into the pipette solution.
A regulation of the vectorial epithelial ion channels is detected via a change in the current intensity with a constant voltage.
as §1
For the patch-clamp experiments, the cells were transferred onto small glass plates.
Macroscopic currents were discharged from A549 cells in the “whole cell” configuration of the “patch-clamp” technique (Hamill et al, Pflugers Arch. 1981, 391(2):85-100, 1981). For the current dissipations in the “whole cell” configuration, the following bath and electrode solutions were used:
Bath solution: 135 mM sodium methanesulfonate, 10 mM NaCl, 2.7 mM KCl, 1.8 mM CaCl2, 2 mM MgCl2, 5.5 mM glucose, and 10 mM HEPES, pH 7.4.
Electrode solution: 120 mM potassium methanesulfonate, 15 mM KCl, 6 mM NaCl, 1 mM Mg2ATP, 2 mM Na3ATP, 10 mM HEPES, and 0.5 mM EGTA (pH 7.2).
Cover slips with the cells cultivated thereon were transferred into a test bath with a capacity of 1 ml, fixed on the microscope table (Axiovert 100, 400-fold magnification), and the cells were superfused with the above-described bath solution. Thereupon, the current was discharged from a suitable cell (which adheres to the cover slip). For this purpose, a microelectrode filled with an electrolyte solution (glass capillary with a defined, heat-polished tip opening of about 1-3 μm, corresponding to a resistance of the electrode tip of […]) was placed on the cell and the membrane was sucked in so that a “Gigaohm seal” was formed between the membrane and the electrode in order to minimize the leakage current. In the “whole cell” configuration, the membrane was penetrated beneath the electrode tip so that the current flowing through all ion channels of the cell could be measured. Upon obtaining a Gigaohm seal, a defined membrane retaining potential was applied via a pre-amplifier (CV-4 Headstage, Axon Instruments) and an amplifier (Axopatch 1 D, Axon Instr.) and the current thereby flowing through the ion channels was measured.
The pulse protocol consisted of a hyperpolarization of the cell membrane to −100 mV for 5 s and a subsequent gradual depolarization to +100 mV in 20 mV steps.
This protocol was performed before (control) and after the addition of ring-shaped organic molecules. The current dissipations thus obtained were stored and analyzed by means of the program PCLAMP 6.0. For this purpose, the current dissipations obtained in the presence of amiloride were subtracted from the currents recorded earlier so that the amiloride-sensitive sodium current through the epithelial sodium channels could be determined.

Row | Compound | changes in morphology or cell growth (human A549 cells) | death of cells (human A549 cells) | activation of the vectorial ionic current compared with known peptides SEQ ID NO: 10, 11 and 12 ([1]; patch-clamp, comparison in words) | Activity in comparison to a peptide SEQ ID NO: 10 CGQRETPEGAEKPWYC ("TIP-Peptid", Lucas et al. Science 1994 also WO00/09149) [1]
1 | C[C@@H]1NC(=O)CNC(=O)[C@H](CCC(=O)O)NC(=O)[C@@H]2CCCN2C(=O)[C@H]([C@@H](C)O)NC(=O)[C@H](CCC(=O)O)NC(=O)[C@H](CCCNC(=N)N)NC(=O)[C@H](CCC(N)=O)NC(=O)CNC(=O)CCCNC(=O)CNC(=O)[C@H](Cc2ccc(O)cc2)NC(=O)[C@H](Cc2c[nH]c3ccccc23)NC(=O)[C@@H]2CCCN2C(=O)[C@H](CCCCN)NC(=O)[C@H](C)NC(=O)[C@H](CCC(=O)O)NC1=O [SEQ ID NO: 4, [gamma-aminobutyric acid-GQRETPEGAEAKPWYG] (cyclo 1-17)] | did not produce any changes in morphology or cell growth | did not result in the death of cells |  | 
2 | [6-amino-hexanoic acid-GQRETPEGAEAKPWYG] (cyclo 1-17) [SEQ ID NO: 8] | did not produce any changes in morphology or cell growth | did not result in the death of cells | significantly higher activations of the vectorial ionic current | 150%
3 | C[C@@H]1NC(=O)CNC(=O)[C@H](CCC(=O)O)NC(=O)[C@@H]2CCCN2C(=O)[C@H]([C@@H](C)O)NC(=O)[C@H](CCC(=O)O)NC(=O)[C@H](CCCNC(=N)N)NC(=O)[C@H](CCC(N)=O)NC(=O)CNC(=O)CCCCNC(=O)CNC(=O)[C@H](Cc2ccc(O)cc2)NC(=O)[C@H](Cc2c[nH]c3ccccc23)NC(=O)[C@@H]2CCCN2C(=O)[C@H](CCCCN)NC(=O)[C@H](C)NC(=O)[C@H](CCC(=O)O)NC1=O [SEQ ID NO: 3, [5-amino-pentanoic acid-GQRETPEGAEAKPWYG] (cyclo 1-17)] | did not produce any changes in morphology or cell growth | did not result in the death of cells |  | 
4 | C[C@@H]1NC(=O)CNC(=O)[C@H](CCC(=O)O)NC(=O)[C@@H]2CCCN2C(=O)[C@H]([C@@H](C)O)NC(=O)[C@H](CCC(=O)O)NC(=O)[C@H](CCCNC(=N)N)NC(=O)[C@H](CCC(N)=O)NC(=O)CNC(=O)CCCCCCNC(=O)[C@H](Cc2ccc(O)cc2)NC(=O)[C@H](Cc2c[nH]c3ccccc23)NC(=O)[C@@H]2CCCN2C(=O)[C@H](CCCCN)NC(=O)[C@H](C)NC(=O)[C@H](CCC(=O)O)NC1=O [SEQ ID NO: 7, [7-amino-heptanoic acid-GQRETPEGAEAKPWY] (cyclo 1-16)] (cyclo(AEAKPWY[Ahp]GQRETPEG)) | did not produce any changes in morphology or cell growth | did not result in the death of cells |  | 
5 | C[C@@H]1NC(=O)CNC(=O)[C@H](CCC(=O)O)NC(=O)[C@@H]2CCCN2C(=O)[C@H]([C@@H](C)O)NC(=O)[C@H](CCC(=O)O)NC(=O)[C@H](CCCNC(=N)N)NC(=O)[C@H](CCC(N)=O)NC(=O)CNC(=O)[C@@H](N)CCCNC(=O)CNC(=O)[C@H](Cc2ccc(O)cc2)NC(=O)[C@H](Cc2c[nH]c3ccccc23)NC(=O)[C@@H]2CCCN2C(=O)[C@H](CCCCN)NC(=O)[C@H](C)NC(=O)[C@H](CCC(=O)O)NC1=O [SEQ ID NO: 2, [ornithine-GQRETPEGAEAKPWYG] (cyclo Orn-delta1-G17)] | did not produce any changes in morphology or cell growth | did not result in the death of cells |  | 115%
6 | C[C@@H]1NC(=O)CNC(=O)[C@H](CCC(=O)O)NC(=O)[C@@H]2CCCN2C(=O)[C@H]([C@@H](C)O)NC(=O)[C@H](CCC(=O)O)NC(=O)[C@H](CCCNC(=N)N)NC(=O)[C@H](CCC(N)=O)NC(=O)CNC(=O)CCCNC(=O)C[C@@H](C(=O)O)NC(=O)[C@H](Cc2ccc(O)cc2)NC(=O)[C@H](Cc2c[nH]c3ccccc23)NC(=O)[C@@H]2CCCN2C(=O)[C@H](CCCCN)NC(=O)[C@H](C)NC(=O)[C@H](CCC(=O)O)NC1=O [SEQ ID NO: 5, [gamma-aminobutyric acid-GQRETPEGAEAKPWYD-OH] (cyclo 1-Dγ17)] | did not produce any changes in morphology or cell growth | did not result in the death of cells |  | 160%
7 | LSPGQRETPEGAEAKPWYE (peptide published in WO 2009/073909) [SEQ ID NO: 12, known peptide from WO2009/073909 (PCT AT2008 448), reference compound] |  |  |  | 60%
8 | CGTKPIELGPDEPKAVC (peptide published in EP 2 009 023) [SEQ ID NO: 11, known peptide for controlling fluid content in the alveoli, from EP 2 009 023, reference compound] |  |  |  | 80%
9 | C[C@@H]1NC(=O)CNC(=O)[C@H](CCC(=O)O)NC(=O)[C@@H]2CCCN2C(=O)[C@H]([C@@H](C)O)NC(=O)[C@H](CCC(=O)O)NC(=O)[C@H](CCCNC(=N)N)NC(=O)[C@H](CCC(N)=O)NC(=O)CNC(=O)[C@@H](N)CCCCNC(=O)CNC(=O)[C@H](Cc2ccc(O)cc2)NC(=O)[C@H](Cc2c[nH]c3ccccc23)NC(=O)[C@@H]2CCCN2C(=O)[C@H](CCCCN)NC(=O)[C@H](C)NC(=O)[C@H](CCC(=O)O)NC1=O [SEQ ID NO: 1, [KGQRETPEGAEAKPWYG] (cyclo Kepsilon1-G17)] | did not produce any changes in morphology or cell growth | did not result in the death of cells |  | 150%
10 | C[C@@H]1NC(=O)CNC(=O)[C@H](CCC(=O)O)NC(=O)[C@@H]2CCCN2C(=O)[C@H]([C@@H](C)O)NC(=O)[C@H](CCC(=O)O)NC(=O)[C@H](CCCNC(=N)N)NC(=O)[C@H](CCC(N)=O)NC(=O)CNC(=O)CCNC(=O)CC[C@@H](C(=O)O)NC(=O)[C@H](Cc2ccc(O)cc2)NC(=O)[C@H](Cc2c[nH]c3ccccc23)NC(=O)[C@@H]2CCCN2C(=O)[C@H](CCCCN)NC(=O)[C@H](C)NC(=O)[C@H](CCC(=O)O)NC1=O [SEQ ID NO: 6, [3-amino-propanoic acid-GQRETPEGAEAKPWYE-OH] (cyclo 1-Eδ17)] | did not produce any changes in morphology or cell growth | did not result in the death of cells |  | 150%
